Assay results published in patent US8591935B2, “Methods and compositions for treating pain comprising a statin” (Warsaw Orthopedic, Inc., priority 2008, dated 2013).

How the values were obtained:
[1] = system: chronic constriction injury (CCI) rats; experiment: Thermal hyperalgesia: paw withdrawal latency to thermal radiant heat (Hargreaves test) in the chronic constriction injury model; assay type: in vivo, Wister rats
Procedure: This model may mimic pain associated with sciatica in humans. Twenty-eight male Wister rats (Charles River Laboratories, Wilmington, Mass.) weighing 300±26 g the day of surgery (Day 1) were used in this study. All experiments were conducted in accordance with the International Association for the Study of Pain guidelines and approved by the Institutional Animal Care and Use Committee at SRI International, Inc (Menlo Park, Calif.). CCI was induced according to the method of Bennett and Xie. Briefly, each animal was anesthetized by intraperitoneal (IP) injection of sodium pentobarbital at a dose of 60 mg/kg. The animal's common sciatic nerve was exposed and freed from adherent tissue at mid-thigh by separating the biceps femoris muscles by blunt dissection. Four loose ligatures were placed 1 mm apart, using chromic gut suture (4-0 absorbable suture; Jorgensen Laboratories, Inc., Loveland, Colo.). Seven animals were randomly assigned to each treatment group. […] The radiant infrared heat source stimulus intensity was set to IR50 and the cut-off time was set at 15 seconds. Rats were placed on a glass platform and allowed to habituate to the testing chambers for a minimum of 15 minutes prior to each testing session. The thermal stimulus was applied to the plantar surface of the paw. Thermal thresholds were defined as the latency in seconds at the first pain behavior, which includes paw withdrawal, flinching, biting and/or licking of the stimulated paw. The readings for all animals were averaged and the mean and standard error of the mean (SEM) were determined for each treatment group.

[2] = system: chronic constriction injury (CCI) rats; experiment: Mechanical allodynia: von Frey monofilament test in the chronic constriction injury model; assay type: in vivo, Wister rats
Procedure: This model may mimic pain associated with sciatica in humans. Twenty-eight male Wister rats (Charles River Laboratories, Wilmington, Mass.) weighing 300±26 g the day of surgery (Day 1) were used in this study. All experiments were conducted in accordance with the International Association for the Study of Pain guidelines and approved by the Institutional Animal Care and Use Committee at SRI International, Inc (Menlo Park, Calif.). CCI was induced according to the method of Bennett and Xie. Briefly, each animal was anesthetized by intraperitoneal (IP) injection of sodium pentobarbital at a dose of 60 mg/kg. The animal's common sciatic nerve was exposed and freed from adherent tissue at mid-thigh by separating the biceps femoris muscles by blunt dissection. Four loose ligatures were placed 1 mm apart, using chromic gut suture (4-0 absorbable suture; Jorgensen Laboratories, Inc., Loveland, Colo.). Seven animals were randomly assigned to each treatment group. Mechanical allodynia was measured using von Frey monofilaments (Stoelting, Wood Dale, Ill.) with varying stiffness (2.0-15.0 g) on Days −1 (baseline), 8, and 15 as described previously. Animals were placed on a perforated metallic platform and allowed to habituate to their surroundings for a minimum of 15 minutes before testing. The 50% paw withdrawal threshold response was determined by a sequential increasing and/or decreasing of the stimulus strength (the “up-down method” of Dixon). Each filament was applied with enough pressure to cause a buckling effect. Absence of a paw lifting/withdrawal response after 5 seconds prompted the use of the filament of next higher weight. Paw withdrawal indicating a positive response prompted the use of a weaker filament. After the initial response (i.e., paw withdrawal), the testing continued for four additional measurements and was used to calculate the response threshold. Four consecutive positive responses received a score of 0.25 g, and five consecutive negative responses (i.e., no paw withdrawal) received a score of 15 g. The 50% paw withdrawal threshold was calculated using the formula: 10 (Xf+kd)/10,000, where Xf is the final von Frey filament used (log units), k is a value that analyzes the response pattern (taken from the table published by Chaplan et al.), and d is the mean difference between stimuli (log units). The mean and standard error of the mean (SEM) were determined for each treatment group.

[3] = lovastatin 0.3 mg/kg/day IP for 15 days, CCI rats
[4] = lovastatin 3 mg/kg/day IP for 15 days, CCI rats
[5] = sulindac 2 mg/kg/day IP for 15 days, CCI rats

SMILES	thermal hyperalgesia withdrawal score, course over the study ([1]; high dose lovastatin pump group, 0.4 mcg/hr)	thermal hyperalgesia withdrawal score compared with other statin groups ([1]; high dose lovastatin pump group, 0.4 mcg/hr, day 21)	pain reduction, paw withdrawal latency to thermal radiant heat vs PBS vehicle [1, 3]	thermal withdrawal time as % of per-operative baseline ([1]; lovastatin 0.3 mg/kg/day IP, Day 7) [%]	thermal hyperalgesia pain behavioral response vs 50:50 DMSO/PBS vehicle ([1]; lovastatin 0.3 mg/kg/day IP, all days tested)	thermal withdrawal time as % of per-operative baseline ([1]; lovastatin 0.3 mg/kg/day IP, days 14 and 21) [%]	pain reduction, paw withdrawal latency to thermal radiant heat vs PBS vehicle [1, 4]	pain reduction, paw withdrawal latency to thermal radiant heat vs PBS vehicle ([1]; lovastatin 3 mg/kg/day IP, at day 14)	thermal withdrawal scores as % of baseline ([1]; low dose lovastatin group (100-fold decrease from 0.3 mg/kg/day), all testing days) [%]	mechanical allodynia pain behavioral response compared with the 0.3 mg/kg/day group ([2]; lovastatin 40 ng/hr group)	pain reduction, von Frey paw withdrawal threshold (mechanical stimulation) vs PBS vehicle [2, 3]	mechanical allodynia pain behavioral response ([2]; lovastatin 0.3 mg/kg/day, all time points)	pain reduction, von Frey paw withdrawal threshold (mechanical stimulation) vs PBS vehicle [2, 4]	pain reduction, von Frey paw withdrawal threshold (mechanical stimulation) vs PBS vehicle ([2]; lovastatin 3 mg/kg/day IP, at day 15)	mechanical allodynia pain response compared with 50:50 DMSO/PBS vehicle control ([2]; lovastatin 0.4 mcg/hr)	pain reduction, paw withdrawal latency to thermal radiant heat vs PBS vehicle [1, 5]	pain reduction, paw withdrawal latency to thermal radiant heat vs PBS vehicle ([1]; sulindac 2 mg/kg/day IP, at 7 and 14 days)	pain reduction, von Frey paw withdrawal threshold (mechanical stimulation) vs PBS vehicle [2, 5]	pain reduction, von Frey paw withdrawal threshold (mechanical stimulation) vs PBS vehicle ([2]; sulindac 2 mg/kg/day IP, at 8 and 15 days)
CC[C@H](C)C(=O)O[C@H]1C[C@@H](C)C=C2C=C[C@H](C)[C@H](CC[C@@H]3C[C@@H](O)CC(=O)O3)[C@H]21 [lovastatin]	steadily improved during the course of the study	statistically equivalent to the other two statin groups	effective at reducing pain	68	reduced this pain behavioral response at all days tested	61	effective at reducing pain	particularly effective	~60	probably statistically equivalent	effective at reducing pain	able to reduce this pain behavioral response at all time points	effective at reducing pain	particularly effective	probably statistically equivalent to the vehicle control				
CC1=C(CC(=O)O)c2cc(F)ccc2/C1=C\c1ccc([S+](C)[O-])cc1 (stereo not shown) [sulindac]																effective at reducing pain	particularly effective	effective at reducing pain	particularly effective
